Literature values as cited in paper PMC12141164, “Phase-1 study of vamotinib (PF-114), a 3rd generation BCR::ABL1 tyrosine kinase-inhibitor, in chronic myeloid leukaemia” (Annals of Hematology, 2025).
Like-named read-outs stand apart in the source and are kept apart here.

How the values were obtained:
Conditions in all cases: cited from earlier work
[1] = tested on: PDGFRa
[2] = tested on: EPHA7
[3] = tested on: ZAK
[4] = tested on: EPHA6
[5] = tested on: TIE2
[6] = tested on: TAK1
[7] = tested on: VEGFR2
[8] = parameters: method as in PMID 35982483

Row | Structure (SMILES) | inhibition of PDGFRa ([1]; off-target kinases) | inhibition of EPHA7 [2] | inhibition of ZAK [3] | inhibition of EPHA6 [4] | inhibition of TIE2 [5] | inhibition of TAK1 [6] | inhibition of VEGFR2 [7] | most common non-hematologic adverse reaction ([8]; clinical evaluation) | drug related cardiovascular adverse events ([8]; recent clinical studies) | inhibition of PDGFRa ([1]; kinase inhibition profiles) | inhibition of EPHA7 ([2]; kinase inhibition profiles) | inhibition of ZAK ([3]; kinase inhibition profiles) | inhibition of EPHA6 ([4]; kinase inhibition profiles) | inhibition of TIE2 ([5]; kinase inhibition profiles) | inhibition of TAK1 ([6]; kinase inhibition profiles) | inhibition of VEGFR2 ([7]; kinase inhibition profiles)
1 | Cc1ccc(C(=O)Nc2ccc(CN3CCN(C)CC3)c(C(F)(F)F)c2)cc1C#Cc1cnc2[nH]ncc2c1 [olverembatinib] | among the off-target kinases | not | potent inhibitor | not | potent inhibitor | potent inhibitor | not | skin pigmentation | some drug related cardiovascular adverse events, including vascular occlusions |  |  |  |  |  |  | 
2 | Cc1ccc(C(=O)Nc2ccc(CN3CCN(C)CC3)c(C(F)(F)F)c2)cc1C#Cc1cnc2cccnn12 [ponatinib] |  |  |  |  |  |  |  |  |  | potently inhibited | inhibition | inhibition | inhibition | inhibition | inhibition | inhibition
